Measured values taken from US4220755A, “Fortimicin B derivatives and process for production thereof” (Abbott Laboratories, priority 1976, dated 1980).
≈ marks a conversion by molar mass, not a printed value. Like-named read-outs stand apart in the source and are kept apart here.

Legend:
[1] = system: Bacillus subtilis KY4273; assay: MIC, agar dilution method, pH 8.0; type: cell-based
Protocol: (§1) Measurement was carried out according to the agar dilution method, using a medium of pH 8.0, or the Japanese Antibiotic Medicament Standard, using a medium of pH 7.2 Units are in mcg/ml.
B.S.: Bacillus subtilis KY4273

[2] = system: Staphylococcus aureus KY4279 ATCC6538P; assay: MIC, agar dilution method, pH 8.0; type: cell-based; conditions: pH 8.0, Staphylococcus aureus KY4279, read-out: Minimum inhibition concentration (MIC), SA
Protocol: as §1
S.A.: Staphylococcus aureus KY4279 ATCC6538P

[3] = system: Proteus vulgaris KY4277 ATCC6897; assay: MIC, agar dilution method, pH 8.0; type: cell-based
Protocol: as §1

[4] = system: Shigella sonnei KY4281 ATCC9290; assay: MIC, agar dilution method, pH 8.0; type: cell-based; conditions: ATCC9290; pH 8.0; Shigella sonnei KY4281; read-out: Minimum inhibition concentration (MIC), SS
Protocol: as §1

[5] = system: Salmonella typhosa KY4278 ATCC9992; assay: MIC, agar dilution method, pH 8.0; type: cell-based; conditions: Salmonella enterica, pH 8, read-out: Minimum inhibition concentration (MIC), ST
Protocol: as §1
S.T.: Salmonella typhosa KY4278 ATCC9992

[6] = system: Eschericia coli KY4271 ATCC26; assay: MIC, agar dilution method, pH 8.0; type: cell-based; conditions: Escherichia coli
Protocol: as §1
E.C.: Eschericia coli KY4271 ATCC26

[7] = system: Klebsiella pneumoniae KY4275 ATCC10031; assay: MIC, agar dilution method, pH 8.0; type: cell-based; conditions: ATCC10031; pH 8.0; Klebsiella pneumoniae KY4275; read-out: Minimum inhibition concentration (MIC), KP
Protocol: as §1
K.P.: Klebsiella pneumoniae KY4275 ATCC10031.

[8] = system: Providencia sp 164; assay: MIC, agar dilution method, pH 7.2; type: cell-based; conditions: pH 7.2; Providencia sp 164; 7**: gentamicin, producing acetyltransferase type II; read-out: Minimum inhibition concentration (MIC)
Protocol: as §1
7: gentamicin, producing acetyltransferase type II.

[9] = system: Pseudomonas aeruginosa BMH# 1; assay: MIC, agar dilution method, pH 7.2; type: cell-based; conditions: Pseudomonas aeruginosa, pH 7.2, read-out: Minimum inhibition concentration (MIC)
Protocol: as §1

[10] = system: Staphylococcus aureus Smith (A); assay: MIC, agar dilution method, pH 7.2; type: cell-based; conditions: Staphylococcus aureus, pH 7.2, read-out: Minimum inhibition concentration (MIC)
Protocol: as §1

[11] = system: Eschericihia coli GN2411-5; assay: MIC, agar dilution method, pH 7.2; type: cell-based; conditions: Escherichia coli, GN2411, pH 7.2, read-out: Minimum inhibition concentration (MIC)
Protocol: as §1

[12] = system: Proteus vulgaris JJ; assay: MIC, agar dilution method, pH 7.2; type: cell-based; conditions: Proteus vulgaris, pH 7.2, read-out: Minimum inhibition concentration (MIC)
Protocol: as §1

[13] = system: Shigella sonnei ATCC9290; assay: MIC, agar dilution method, pH 7.2; type: cell-based; conditions: read-out: Minimum inhibition concentration (MIC)
Protocol: as §1

[14] = system: Staphylococcus aureus 209-P; assay: MIC, agar dilution method, pH 7.2; type: cell-based; conditions: Staphylococcus aureus, 209P, pH 7.2, read-out: Minimum inhibition concentration (MIC)
Protocol: as §1

[15] = system: Klebsiella pneumoniae KY4274; assay: MIC, agar dilution method, pH 7.2; type: cell-based; conditions: Klebsiella pneumoniae, KY4274, pH 7.2, read-out: Minimum inhibition concentration (MIC)
Protocol: as §1

[16] = system: Salmonella enteritidis G-14; assay: MIC, agar dilution method, pH 7.2; type: cell-based; conditions: Salmonella enterica, ENTERITIDIS, pH 7.2, read-out: Minimum inhibition concentration (MIC)
Protocol: as §1

[17] = system: Escherichia coli NIHTC-2; assay: MIC, agar dilution method, pH 7.2; type: cell-based; conditions: Escherichia coli, NIHTC2, pH 7.2, read-out: Minimum inhibition concentration (MIC)
Protocol: as §1

[18] = system: Pseudomonas aeruginosa UCLA 4184; assay: MIC, agar dilution method, pH 7.2; type: cell-based; conditions: Pseudomonas aeruginosa, UCLA4184, pH 7.2, read-out: Minimum inhibition concentration (MIC)
Protocol: as §1

[19] = system: Escherichia coli 57R/W677; assay: MIC, agar dilution method, pH 7.2; type: cell-based; conditions: 57R/W677, pH 7.2, read-out: Minimum inhibition concentration (MIC)
Protocol: as §1
(§2) **1: gentamicin, producing adenylsynthetase.

[20] = system: Klebsiella pneumoniae 3020 Y-60; assay: MIC, agar dilution method, pH 7.2; type: cell-based; conditions: Klebsiella pneumoniae, 3020Y60, pH 7.2, read-out: Minimum inhibition concentration (MIC)
Protocol: as §1, §2

[21] = system: Escherichia coli 76-2; assay: MIC, agar dilution method, pH 7.2; type: cell-based; conditions: Escherichia coli, 762; pH 7.2; E. coli 76-2; 1**: gentamicin, producing adenylsynthetase; read-out: Minimum inhibition concentration (MIC)
Protocol: as §1, §2

[22] = system: Escherichia coli R12 Z-338; assay: MIC, agar dilution method, pH 7.2; type: cell-based; conditions: R12Z338, pH 7.2, E. coli R12 Z-338, 1**: gentamicin, producing adenylsynthetase, read-out: Minimum inhibition concentration (MIC)
Protocol: as §1, §2

[23] = system: Eschericihia coli 3100; assay: MIC, agar dilution method, pH 7.2; type: cell-based, Escherichia coli; conditions: Escherichia coli, 3100, pH 7.2, read-out: Minimum inhibition concentration (MIC)
Protocol: as §1

[24] = system: Staphylococcus a ureus 226; assay: MIC, agar dilution method, pH 7.2; type: cell-based, Staphylococcus aureus; conditions: pH 7.2, read-out: Minimum inhibition concentration (MIC)
Protocol: as §1

[25] = system: Escherichia coli R19 KY8348; assay: MIC, agar dilution method, pH 7.2; type: cell-based; conditions: R19KY8348, pH 7.2, read-out: Minimum inhibition concentration (MIC)
Protocol: as §1
(§3) 4: gentamicin, producing acetyltransferase type I.

[26] = system: Pseudomonas aeruginosa R4 KY8511; assay: MIC, agar dilution method, pH 7.2; type: cell-based; conditions: R4KY8511, pH 7.2, read-out: Minimum inhibition concentration (MIC)
Protocol: as §1, §3

[27] = system: Escherichia coli R20 KY8349; assay: MIC, agar dilution method, pH 7.2; type: cell-based; conditions: R20KY8349, pH 7.2, E. coli R20 KY8349, 5**: neomycin, producing phosphotransferase type I, read-out: Minimum inhibition concentration (MIC)
Protocol: as §1
5: neomycin, producing phosphotransferase type I.

[28] = system: Escherichia coli R18 KY8321; assay: MIC, agar dilution method, pH 7.2; type: cell-based; conditions: R18KY8321, E. coli R18 KY8321, 2**: gentamicin, producing adenylsynthetase and neomycin phosphotransferase type II, read-out: Minimum inhibition concentration (MIC)
Protocol: as §1
2: gentamicin, producing adenylsynthetase and neomycin phosphotransferase

[29] = system: Serratia marcescens 1065; assay: MIC, agar dilution method, pH 7.2; type: cell-based; conditions: Serratia marcescens, 1065, pH 7.2, read-out: Minimum inhibition concentration (MIC)
Protocol: as §1
(§4) 3: kanamycin, producing acetyltransferase.

[30] = system: Pseudomonas aeruginosa R9 KY8516; assay: MIC, agar dilution method, pH 7.2; type: cell-based; conditions: R9KY8516, pH 7.2, read-out: Minimum inhibition concentration (MIC)
Protocol: as §1, §4

[31] = system: Escherichia coli R17 Z343; assay: MIC, agar dilution method, pH 7.2; type: cell-based; conditions: R17Z343, pH 7.2, E. coli R17 Z343, 3**: kanamycin, producing acetyltransferase, read-out: Minimum inhibition concentration (MIC)
Protocol: as §1, §4

[32] = system: Pseudomonas aeruginosa R5 KY8512; assay: MIC, agar dilution method, pH 7.2; type: cell-based; conditions: R5KY8512, pH 7.2, read-out: Minimum inhibition concentration (MIC)
Protocol: as §1
6: neomycin, producing phosphotransferase type I and type II.

[33] = ATCC6897, pH 8.0, Proteus vulgaris KY4277, read-out: Minimum inhibition concentration (MIC), PV
[34] = pH 8.0, Bacillus subtilis KY4273, read-out: Minimum inhibition concentration (MIC), BS
[35] = ATCC26, pH 8.0, E. coli KY4271, read-out: Minimum inhibition concentration (MIC), EC

## CO[C@H]1[C@@H](O)[C@H](N)[C@@H](O[C@H]2O[C@H]([C@H](C)N)CC[C@H]2N)[C@H](O)[C@@H]1N(C)CCNCCN [Compound 25, 4-N-[2-(2-aminoethyl)aminoethyl]fortimicin B]
[1]; Bacillus subtilis, KY4273, pH 8, read-out: Minimum inhibition concentration (MIC), BS
  MIC: 1.25 µg/mL (≈ 2.88 µM)
[2]
  MIC: 0.63 µg/mL (≈ 1.45 µM)
[3]; [33]
  MIC: 5 µg/mL (≈ 11.5 µM)
[4]
  MIC: 5 µg/mL (≈ 11.5 µM)
[5]
  MIC: 1.25 µg/mL (≈ 2.88 µM)
[6]; ATCC26, pH 8, read-out: Minimum inhibition concentration (MIC), EC
  MIC: 1.25 µg/mL (≈ 2.88 µM)
[7]
  MIC: 5 µg/mL (≈ 11.5 µM)

## CNCCN(C)[C@H]1[C@@H](O)[C@H](O[C@H]2O[C@H]([C@H](C)N)CC[C@H]2N)[C@@H](N)[C@H](O)[C@@H]1OC [Compound 26, 4-N-(2-methylaminoethyl)fortimicin B]
[1]; [34]
  MIC: 0.32 µg/mL (≈ 0.789 µM)
[2]
  MIC: 0.04 µg/mL (≈ 0.0986 µM)
[3]; Proteus vulgaris, ATCC6897, pH 8, read-out: Minimum inhibition concentration (MIC), PV
  MIC: 1.25 µg/mL (≈ 3.08 µM)
[4]
  MIC: 5 µg/mL (≈ 12.3 µM)
[5]
  MIC: 1.25 µg/mL (≈ 3.08 µM)
[6]; [35]
  MIC: 0.16 µg/mL (≈ 0.395 µM)
[7]
  MIC: 5 µg/mL (≈ 12.3 µM)

## CNCCC(O)CN(C)[C@H]1[C@@H](O)[C@H](O[C@H]2O[C@H]([C@H](C)N)CC[C@H]2N)[C@@H](N)[C@H](O)[C@@H]1OC (stereo partly drawn) [Compound 30, 4-N-[(R,S)-4-methylamino-2-hydroxybutyl]fortimicin B]
[1]; [34]
  MIC: 0.02 µg/mL (≈ 0.0445 µM)
[2]
  MIC: 0.08 µg/mL (≈ 0.178 µM)
[3]; [33]
  MIC: 0.16 µg/mL (≈ 0.356 µM)
[4]
  MIC: 0.63 µg/mL (≈ 1.4 µM)
[5]
  MIC: 0.08 µg/mL (≈ 0.178 µM)
[6]; [35]
  MIC: 0.32 µg/mL (≈ 0.712 µM)
[7]
  MIC: 0.32 µg/mL (≈ 0.712 µM)

## CO[C@H]1[C@@H](O)[C@H](N)[C@@H](O[C@H]2O[C@H]([C@H](C)N)CC[C@H]2N)[C@H](O)[C@@H]1N(C)C[C@@H](O)CN [Compound 31, 4-N-[(S)-3-amino-2-hydroxypropyl]fortimicin B]
[1]; [34]
  MIC: 0.32 µg/mL (≈ 0.759 µM)
[2]
  MIC: 0.16 µg/mL (≈ 0.38 µM)
[3]; [33]
  MIC: 1.25 µg/mL (≈ 2.97 µM)
[4]
  MIC: 2.5 µg/mL (≈ 5.93 µM)
[5]
  MIC: 0.63 µg/mL (≈ 1.49 µM)
[6]; [35]
  MIC: 2.5 µg/mL (≈ 5.93 µM)
[7]
  MIC: 2.5 µg/mL (≈ 5.93 µM)

## CNC[C@H](O)CN(C)[C@H]1[C@@H](O)[C@H](O[C@H]2O[C@H]([C@H](C)N)CC[C@H]2N)[C@@H](N)[C@H](O)[C@@H]1OC [Compound 32, 4-N-[(S)-3-methylamino-2-hydroxypropyl]fortimicin B]
[1]; [34]
  MIC: 0.63 µg/mL (≈ 1.45 µM)
[2]
  MIC: 0.16 µg/mL (≈ 0.367 µM)
[3]; [33]
  MIC: 2.5 µg/mL (≈ 5.74 µM)
[4]
  MIC: 2.5 µg/mL (≈ 5.74 µM)
[5]
  MIC: 0.63 µg/mL (≈ 1.45 µM)
[6]; [35]
  MIC: 2.5 µg/mL (≈ 5.74 µM)
[7]
  MIC: 5 µg/mL (≈ 11.5 µM)

## NC[C@H]1O[C@H](O[C@H]2[C@H](O)[C@@H](O[C@H]3O[C@H](CO)[C@@H](O)[C@H](N)[C@H]3O)[C@H](N)C[C@@H]2N)[C@H](O)[C@@H](O)[C@@H]1O [KA, kanamycin A, reference compound]
[8]
  MIC: > 100 µg/mL
[9]
  MIC: 25 µg/mL (≈ 51.6 µM)
[10]
  MIC: 0.4 µg/mL (≈ 0.826 µM)
[11]
  MIC: 3.12 µg/mL (≈ 6.44 µM)
[12]
  MIC: 1.56 µg/mL (≈ 3.22 µM)
[13]
  MIC: 3.12 µg/mL (≈ 6.44 µM)
[14]
  MIC: 0.4 µg/mL (≈ 0.826 µM)
[15]
  MIC: > 100 µg/mL
[16]
  MIC: 3.12 µg/mL (≈ 6.44 µM)
[17]
  MIC: 1.56 µg/mL (≈ 3.22 µM)
[18]
  MIC: > 100 µg/mL
[19]
  MIC: > 100 µg/mL
[20]
  MIC: > 100 µg/mL
[21]
  MIC: > 100 µg/mL
[22]
  MIC: 100 µg/mL (≈ 206 µM)
[23]
  MIC: 3.12 µg/mL (≈ 6.44 µM)
[24]
  MIC: 0.78 µg/mL (≈ 1.61 µM)
[25]
  MIC: 1.56 µg/mL (≈ 3.22 µM)
[26]
  MIC: 100 µg/mL (≈ 206 µM)
[27]
  MIC: > 100 µg/mL
[28]
  MIC: > 100 µg/mL
[29]
  MIC: 100 µg/mL (≈ 206 µM)
[30]
  MIC: > 100 µg/mL
[31]
  MIC: 12.5 µg/mL (≈ 25.8 µM)
[32]
  MIC: > 100 µg/mL
